Data: US12491233B2, “Pharmaceutical composition, for preventing or treating Charcot-Marie-Tooth disorder, comprising mesenchymal stem cells or insulin secreted by mesenchymal stem cells” (SAMSUNG LIFE PUBLIC WELFARE FOUNDATION, priority 2020, dated 2025)

How the values were obtained:
Schwann cells [1] = experiment: CCK-8 cell proliferation of insulin-treated Schwann cells; format: cell-based; details: for CCK-8: relative to 0 nM = 1
Protocol: (§1) The cultured Schwann cells were treated with insulin at 0, 1, 10, 50, 100, 200, 500, or 1000 nM, and then the degree of cell proliferation was determined by measurement of the absorbance at 450 nm using a spectrophotometer by using the CCK-8 (Dojindo) test method. ATP was measured using the CellTiter-Glo Luminescent Cell Viability Assay (Promega Corporation), and finally, 5-bromo-2′-deoxyuridine (BrdU) bound during DNA synthesis in cells was identified. In this test method, analysis was performed using Cell Proliferation ELISA, BrdU (colorimetric) (Roche). BrdU was added to the cells, followed by incubation for 24 hours, and then the cells were fixed, followed by DNA denaturation, and then treated with Anti-BrdU antibody. The cells were incubated with TMB substrate by using HRP-linked secondary antibody, and the absorbance at 370 nm was measured in a spectrophotometer.

Schwann cells [2] = experiment: ATP measurement, CellTiter-Glo Luminescent Cell Viability Assay; format: cell-based; details: relative to 0 nM = 1
Protocol: as §1

Schwann cells [3] = experiment: BrdU Cell Proliferation ELISA (colorimetric); format: cell-based; details: relative to 0 nM = 1
Protocol: as §1

ERK and Akt pathways = experiment: Western blot of P-ERK1/2, ERK1/2, P-AKT, AKT in insulin-treated Schwann cells; format: cell-based; details: 100 nM insulin, 24 hours
Protocol: After the cultured Schwann cells were treated with 100 nM insulin protein, the cells were harvested after 24 hours, and then the pellets were added in RIPA buffer, and the cells were disrupted using a sonicator and then centrifuged at 13,000 rpm at 4° C. for 15 minutes. Only the supernatant was subjected to protein quantification, and then 30 μg of proteins was loaded onto SDS-PAGE gel. Thereafter, the gel loaded on PVDF was transferred and then blocked with 5% skim milk for 1 hour, and then P-ERK1/2, ERK1/2, P-AKT, AKT, and β-actin antibodies were attached thereto at 4° C. for 24 hours. After the HRP-linked secondary antibody reaction and the washing process were performed, the bands of proteins were checked by using ECL solution.

[4] = test system: Charcot-Marie-Tooth disease mice; experiment: Rotarod testing in Charcot-Marie-Tooth disease mice; format: in vivo
From the text: 5-Week-old Charcot-Marie-Tooth disease mice were intravenously administered with 12 U/kg insulin and, after two weeks, examined for behavioral performance increase through rotarod testing as in Example 5.

[5] = test system: Charcot-Marie-Tooth disease mice; experiment: Grip strength testing in Charcot-Marie-Tooth disease mice; format: in vivo; details: 5-week-old CMT mice, 12 U/kg intravenously, after two weeks; WT 8.9, sham 6.2
From the text: 5-Week-old Charcot-Marie-Tooth disease mice were intravenously administered with 12 U/kg insulin and, after two weeks, examined for behavioral performance increase through grip strength testing as in Example 5.

PMP22 = PMP22 gene expression in sciatic nerve tissue by qRT-PCR; format: in vivo, mice
Protocol: In addition, it was examined using qRT-PCR analysis whether specific genes observable in each type of differentiated cells were expressed in differentiated adipocytes and chondrocytes. Non-differentiated cells and differentiated cells were harvested and the total RNA was extracted from the cell pellets using TRIZOL. The pellets were completely dissolved in 1 mL of TRIZOL, and then 0.2 mL of chloroform was added thereto, followed by shaking for 15 seconds and then standing at room temperature for 3 minutes. The resultant product was then separated into the bottom layer phenol-chloroform, the intermediate layer, and the upper layer colorless aqueous solution by centrifugation at 13,000 rpm and 4° C. for 15 minutes, and of these, only the upper layer colorless aqueous solution was separately collected and transferred into a new tube. After 0.5 mL of isopropyl alcohol was added to the tube and then vigorously mixed, the mixture was left at room temperature for 5 minutes. The resultant solution was again centrifuged at 13,000 rpm and 4° C. for 10 minutes, and the supernatant was discarded. Thereafter, 75% ethanol was added to pellets and again vigorously mixed, followed by centrifugation. The upper layer was discarded, and RNA pellets were dried for 5-10 minutes and dissolved in RNase-free water. […]

[6] = test system: Charcot-Marie-Tooth disease mice; experiment: Myelination of sciatic nerve tissue by transmission electron microscope; format: in vivo
From the text: 5-Week-old Charcot-Marie-Tooth disease mice were intravenously administered with 12 U/kg insulin, and after two weeks, the sciatic nerve tissue was collected and observed by the same method as in the histological analysis through a transmission electron microscope in Example 7, and the results are shown in FIGS. 8A to 8C and Tables 12 and 13.

MPZ [7] = experiment: MPZ in sciatic nerve tissue by confocal microscope; format: in vivo, mice; details: 12 U/kg intravenously, after two weeks, WT = 1, sham 0.20
From the text: 5-Week-old Charcot-Marie-Tooth disease mice were intravenously administered with 12 U/kg insulin, and after two weeks, the sciatic nerve tissue was collected and observed through a confocal microscope in Example 7, and the results are shown in FIG. 8D and Table 14.

MPZ [8] = experiment: MPZ expression level in sciatic nerve tissue by western blotting; format: in vivo, mice; details: 12 U/kg intravenously, after two weeks, WT = 100, sham 3.84
Protocol: 5-Week-old Charcot-Marie-Tooth disease mice were intravenously administered with 12 U/kg insulin, and after two weeks, the sciatic nerve tissue was collected and then the MPZ expression level was determined using MPZ antibody by the same method as in protein expression analysis through western blotting in Example 3, and the results are shown in FIGS. 8F and 8G and Table 15.

Dystrophin = experiment: Myogenesis of gastrocnemius muscle tissue, dystrophin fluorescent antibody; format: in vivo, mice
Protocol: 5-Week-old Charcot-Marie-Tooth disease mice were intravenously administered with 12 U/kg insulin, and after two weeks, the gastrocnemius muscle tissue was collected. Then, the increase in myogenesis was measured using the dystrophin antibody by the same method as in protein expression analysis using a fluorescent antibody in Example 7, and the results are shown in FIGS. 9A and 9B and Table 16.

[9] = test system: Charcot-Marie-Tooth disease mice; experiment: MRI of gastrocnemius muscle tissue, cross-sectional area and volume; format: in vivo; details: 12 U/kg intravenously, after two weeks; for CSA: MRI; for Volume: from cross-sectional area
Protocol: 5-Week-old Charcot-Marie-Tooth disease mice were intravenously administered with 12 U/kg insulin and, after two weeks, the gastrocnemius muscle tissue was observed by the MRI system. In addition, the cross-sectional area of the muscle tissue was measured to obtain the volume of the muscle tissue, and the results are shown in FIG. 9E and Table 18.

In the case of insulin, the “optimum concentration for increasing the proliferation capacity of Schwann cells” value (Schwann cells [1]; from CCK-8, ATP and BrdU tests, 0-1000 nM) is reported as 100 nM, the CCK-8 (Schwann cells [1]; insulin 1 nM) is reported as 1.03 and the CCK-8 (Schwann cells [1]; insulin 10 nM) is reported as 1.09. For the same substance, the CCK-8 (Schwann cells [1]; insulin 50 nM) was 1.16, the CCK-8 (Schwann cells [1]; insulin 100 nM) was 1.18 and the CCK-8 (Schwann cells [1]; insulin 200 nM) was 1.19. For the same substance, the CCK-8 (Schwann cells [1]; insulin 500 nM) was 1.21, the CCK-8 (Schwann cells [1]; insulin 1000 nM) was 1.21 and the ATP (Schwann cells [2]; insulin 1 nM) was 1.08. The ATP (Schwann cells [2]; insulin 10 nM) was 1.13, the ATP (Schwann cells [2]; insulin 50 nM) was 1.20 and the ATP (Schwann cells [2]; insulin 100 nM) was 1.23. The ATP (Schwann cells [2]; insulin 200 nM) was 1.18, the ATP (Schwann cells [2]; insulin 500 nM) was 1.22 and the ATP (Schwann cells [2]; insulin 1000 nM) was 1.06. The BrdU (Schwann cells [3]; insulin 1 nM) was 1.13, the BrdU (Schwann cells [3]; insulin 10 nM) was 1.32 and the BrdU (Schwann cells [3]; insulin 50 nM) was 1.39. The BrdU (Schwann cells [3]; insulin 100 nM) was 1.51, the BrdU (Schwann cells [3]; insulin 200 nM) was 1.50 and the BrdU (Schwann cells [3]; insulin 500 nM) was 1.36. The BrdU (Schwann cells [3]; insulin 1000 nM) was 1.44, the “activation of proliferation potency of Schwann cells through ERK and Akt pathways” value (ERK and Akt pathways) was “activated the proliferation potency of Schwann cells through ERK and Akt pathways” and the Rotarod ([4]; 5-week-old CMT mice, 12 U/kg intravenously, after two weeks, WT 112.3, sham 27.8) was 67.9. For the same substance, the “behavioral performance of the mice” value ([4]; rotarod and grip strength, in words) was “increased the behavioral performance”, the “Grip Strength” value [5] was 7.7 and the PMP22 expression levels (PMP22; in words) was “reduced the PMP22 expression levels”. For the same substance, the PMP22 (PMP22; sciatic nerve, 12 U/kg intravenously, after two weeks, WT = 1, sham 1305.36) was 986.69, the myelination ([6]; in words, FIGS. 8A to 8G) was “increased myelination” and the myelination ([6]; sciatic nerve, TEM, 12 U/kg intravenously, after two weeks, WT = 100, sham 13.59) was 82.99. For the same substance, the Thickness ([6]; thickness of myelination, sciatic nerve, TEM, 12 U/kg intravenously, after two weeks, WT 3.32, sham 0.67) was 2.53, the MPZ (MPZ [7]) was 0.69 and the MPZ (MPZ [8]) was 44.12. For the same substance, the Dystrophin (Dystrophin; gastrocnemius muscle, 12 U/kg intravenously, after two weeks, WT = 1, sham 0.27) was 0.94, the myogenesis (Dystrophin; in words, FIGS. 9A to 9E) was “increased myogenesis” and the CSA ([9]; Left gastrocnemius muscle, sham 0.302) was 0.343. It also gave a Volume ([9]; Left gastrocnemius muscle, sham 2.533) of 2.879, a CSA ([9]; Right gastrocnemius muscle, sham 0.290) of 0.323 and a Volume ([9]; Right gastrocnemius muscle, sham 2.438) of 2.712.
